{"source": "patent US11058756B2", "about": "“Compositions and methods of treating autoimmune disease by reducing enterococcus” (YALE UNIVERSITY, priority 2017, dated 2021)", "key": {"(NZWxBXSB)F1 mice": {"test_system": "(NZWxBXSB)F1 mice", "assay": "Serum ELISAs for anti-dsDNA, anti-RNA, anti-β2GPI IgG, ERV gp70 protein and anti-ERV gp70 immune complexes", "assay_type": "in vivo, mouse", "excerpt": "(§1) Mice were cohoused for 3 to 4 weeks before antibiotic treatment to allow for equilibration of the microbiota. Single antibiotic or broad-spectrum antibiotic administration consisted of metronidazole (1 g/liter; Fisher Scientific), neomycin (1 g/liter; Fisher Scientific), ampicillin (1 g/liter; Sigma) and vancomycin (0.5 g/liter; Acros Organics) in the drinking water for up to 22 weeks or a targeted regiment for 2 weeks and then replaced with regular water for the duration of the experiment. For broad-spectrum antibiotic experiments (vancomycin, ampicillin, metronidazole, and neomycin combined), sweetener (Equal, 4 g/L) was added to both the antibiotics and control water due to the metallic taste of metronidazole. Twenty-four hours after cessation of antibiotic water, mice were administered 1×10^6 CFUs of vancomycin-resistant E. gallinarum via oral gavage, isolated from liver tissue of a vancomycin-treated mouse that continued to show signs of autoimmune disease (high-level resistance was confirmed by vanC gene PCR). E. gallinarum was grown at 37° C. in Gifu Anaerobic Broth (HIMEDIA Laboratories) to early stationary phase under anaerobic conditions (82% N2, 15% CO2, 3% H2 by volume) in an anaerobic chamber and diluted in PBS to 10^7 CFUs.\nSerum antibodies specific for dsDNA and b2GPI were determined using standardized ELISAs (anti-dsDNA antibody, Abcam; and, Mouse/Rat Apolipoprotein H Antibody, R&D Systems; respectively). Anti-RNA was determined by ELISA using defined positive controls (Human/Mouse RNA Polymerase II Antibody, R&D systems). Anti-ERV gp70 ICs and ERV gp70 protein were determined by OD450 signal comparisons (Evans et al., 1990, J Virol, 64, 6176-6183). For anti-dsDNA ELISAs, DNA-BIND™ (Corning) plates were coated with 100 μg/ml salmon sperm DNA (Fisher Scientific) and blocked in 0.1M PBS, 3.0% BSA, 5.0% FBS. The serum was diluted 1:1000 for the assay and incubated for 1 hour at 37° C. Wells were washed and incubated for 1 hour at 37° C. with rabbit anti-mouse IgG (Fisher Scientific) conjugated to HRP and developed with TMB substrate solution. 2M sulfuric acid (Sigma) solution was used to stop development. The concentration of anti-dsDNA was determined by reading the absorbance at 450 nm/570 nm reference.\nFor anti-RNA ELISAs, DNA-BIND™ (Corning) plates were coated with […] yeast RNA (Ambion) and blocked in 0.1M PBS, 0.05% Tween-20, 5.0% FBS. The serum was diluted 1:1000 for the assay and incubated for 1 hour at 37° C. Wells were washed and incubated for 1 hour at 37° C. with rabbit anti-mouse IgG (Fisher Scientific) conjugated to HRP and developed with TMB substrate solution. 2M sulfuric acid (Sigma) solution was used to stop development. The concentration of anti-RNA IgG was determined by reading the absorbance at 450 nm/570 nm reference.\nFor anti-b2GPI ELISAs, Corning® 96-well EIA/RIA easy Wash™ clear flat-bottom polystyrene high-bind microplates were coated with […] recombinant b2GPI/ApoH (R&D Systems) and blocked in Pierce Protein-Free (PBS) Blocking Buffer (Thermo Scientific). The serum was diluted 1:100 for the assay and incubated at room temperature for 2 hours on a shaker. Wells were washed and incubated while shaking for 30 minutes at room temperature with goat anti-mouse IgG (Fisher Scientific) conjugated to HRP and developed with TMB substrate solution. 2M sulfuric acid (Sigma) solution was used to stop development. The concentration of anti-b2GPI was determined by reading the absorbance at 450 nm/650 nm reference. […]"}, "E. gallinarum": {"test_system": "E. gallinarum", "assay": "Assessment of bacterial translocation and tissue burden (anaerobic tissue cultures, CFU)", "assay_type": "in vivo, mouse", "details": "FIG. 1K-1N", "text": "Mice were cohoused for 3 to 4 weeks before antibiotic treatment to allow for equilibration of the microbiota. Single antibiotic or broad-spectrum antibiotic administration consisted of metronidazole (1 g/liter; Fisher Scientific), neomycin (1 g/liter; Fisher Scientific), ampicillin (1 g/liter; Sigma) and vancomycin (0.5 g/liter; Acros Organics) in the drinking water for up to 22 weeks or a targeted regiment for 2 weeks and then replaced with regular water for the duration of the experiment. For broad-spectrum antibiotic experiments (vancomycin, ampicillin, metronidazole, and neomycin combined), sweetener (Equal, 4 g/L) was added to both the antibiotics and control water due to the metallic taste of metronidazole. […] E. gallinarum was grown at 37° C. in Gifu Anaerobic Broth (HIMEDIA Laboratories) to early stationary phase under anaerobic conditions (82% N2, 15% CO2, 3% H2 by volume) in an anaerobic chamber and diluted in PBS to 10^7 CFUs.\n14-, 16- and 18-week-old mice underwent sterile laparotomy and nose, mouth, small intestine (luminal and adherent fractions), mesenteric veins, mesenteric lymph nodes (MLN), liver and spleen were aseptically collected in BBL Mycoflask Thioglycollate (Fluid) Prepared Media (BD Diagnostic Systems) and incubated for 72 hours in anaerobic conditions at 37° C. Gifu Media Agar plates were streaked with the content from the BBL Mycoflask Thioglycollate and incubated for 48 hours in an anaerobic chamber at 37° C. Colony Formation Units (CFU) were counted and concentration determined per milligram of tissue. Single colonies were grown in Gifu anaerobic media for 48 hours in an anaerobic chamber at 37° C. and aliquots from each sample were collected and centrifuge for 10 minutes at 10000×g. DNA was extracted from bacterial pellets using DNeasy Blood and Tissue kit (Qiagen) and submitted to PCR amplification of the 16S region and Sanger sequencing. In addition, purified DNA was used for eubacterial, Enterococcus genus and Enterococcus gallinarum PCR assays."}, "Th17 and Tfh cells": {"test_system": "Th17 and Tfh cells", "assay": "Th17/Tfh cell frequencies (FACS) and splenocyte cytokines (LEGENDplex) after antibiotic treatment in vivo", "set-up": "species or system mouse", "excerpt": "as §1\nCytokine levels were determined from culture supernatants using LEGENDplex™ (BioLegend), a bead-based immunoassay. The preformed mouse T helper cytokine panel was used. […]\nFor direct ex vivo intracellular cytokine detection, cells isolated from small intestinal lamina propria, MLN or spleen were immediately treated with GolgiStop (BD Bioscience) and surface-stained in FACS buffer (PBS, 2% bovine serum albumin, 0.2 mg of sodium azide, 2 mM EDTA) for 30 minutes in the dark at room temperature with fluorescently conjugated antibodies specific for CD3, CD4, CD11b, CD11c, CD44, CD62L, CD19, CD45, CD45R (B220), CXCR5, GITR, IL-17, IFN-g, Ly6C, NK1.1, PDCA-1, PD-1 and PSGL-1. […] Cell viability was assessed with Zombie NIR Fixable Viability Kit (BioLegend)."}, "MLN Th17 cells": {"test_system": "MLN Th17 cells", "assay": "Vancomycin in vitro assay on MLN cell cultures (Th17 frequency by FACS)", "assay_type": "cell-based, mouse", "details": "vancomycin 16 μg/mL, anti-CD3/anti-CD28, 3 days (FIG. 19D legend)", "protocol": "[…] In vitro samples were stained as described above. All samples were collected using an LSR II flow cytometer (Becton Dickinson). All flow cytometry data were analyzed by FlowJo version 9.7 (Tree Star)."}}, "note": "Entries after “also recorded” stand apart in the source; their conditions may differ.", "data": [{"smiles": "CN[C@H](CC(C)C)C(=O)N[C@H]1C(=O)N[C@@H](CC(N)=O)C(=O)N[C@H]2C(=O)N[C@H]3C(=O)N[C@H](C(=O)N[C@H](C(=O)O)c4cc(O)cc(O)c4-c4cc3ccc4O)[C@H](O)c3ccc(c(Cl)c3)Oc3cc2cc(c3O[C@@H]2O[C@H](CO)[C@@H](O)[C@H](O)[C@H]2O[C@H]2C[C@](C)(N)[C@H](O)[C@H](C)O2)Oc2ccc(cc2Cl)[C@H]1O", "note": "[vancomycin]", "values": [{"measurement": "lupus-related autoantibodies (serum anti-dsDNA and anti-RNA IgG)", "setting": "(NZWxBXSB)F1 mice; single antibiotic in drinking water, 16 weeks of age, FIG. 1B-1C", "value": "prevented"}, {"measurement": "anti-β2GPI", "setting": "(NZWxBXSB)F1 mice; vancomycin 0.5 g/L in drinking water from 6 weeks of age, FIG. 7", "value": "suppressed"}, {"measurement": "serum ERV gp70", "setting": "(NZWxBXSB)F1 mice; vancomycin 0.5 g/L in drinking water from 6 weeks of age, FIG. 7K", "value": "suppressed"}, {"measurement": "anti-ERV gp70 immune complexes (ICs)", "setting": "(NZWxBXSB)F1 mice; vancomycin 0.5 g/L in drinking water from 6 weeks of age, FIG. 7L", "value": "suppressed"}, {"measurement": "Translocation (bacterial growth in mesenteric veins, MLN, liver, spleen)", "setting": "E. gallinarum; (NZWxBXSB)F1 mice, antibiotics in drinking water, 16-18 weeks of age", "value": "reduced"}, {"measurement": "suppression of growth of E. gallinarum in tissues, VANC compared to NEO-treated animals", "setting": "E. gallinarum; mesenteric veins, MLN, liver, spleen, P=0.0337 and P<0.005", "value": "significantly higher"}, {"measurement": "Tfh cells", "setting": "Th17 and Tfh cells; MLN of (NZWxBXSB)F1 mice treated via drinking water, FIG. 19C", "value": "reduced; also recorded: suppresses"}, {"measurement": "Th17 cells", "setting": "Th17 and Tfh cells; spleen and MLN of (NZWxBXSB)F1 mice, SFB-negative, treated via drinking water, FIG. 19", "value": "reduced; also recorded: suppresses"}, {"measurement": "cytokine signatures (inflammatory cytokines in splenocyte supernatants)", "setting": "Th17 and Tfh cells; splenocytes stimulated with anti-CD3/anti-CD28 for 3 days, FIG. 19A", "value": "reduced; also recorded: suppresses"}, {"measurement": "direct influence on immune cells in vitro (MLN Th17 cell frequency)", "setting": "MLN Th17 cells", "value": "no direct influence"}]}]}
